Source: ChEMBL document CHEMBL3352315, “Biotransformation of huperzine A by a fungal endophyte of Huperzia serrata furnished sesquiterpenoid-alkaloid hybrids” (J Nat Prod, 2014)

molecular target: Acetylcholinesterase (Homo sapiens, UniProt P22303); assay: Inhibition of acetylcholinesterase (unknown origin) assessed as inhibition of acetylcholine hydrolysis after 30 mins by Ellmann's method
Sequence (P22303 whole entry): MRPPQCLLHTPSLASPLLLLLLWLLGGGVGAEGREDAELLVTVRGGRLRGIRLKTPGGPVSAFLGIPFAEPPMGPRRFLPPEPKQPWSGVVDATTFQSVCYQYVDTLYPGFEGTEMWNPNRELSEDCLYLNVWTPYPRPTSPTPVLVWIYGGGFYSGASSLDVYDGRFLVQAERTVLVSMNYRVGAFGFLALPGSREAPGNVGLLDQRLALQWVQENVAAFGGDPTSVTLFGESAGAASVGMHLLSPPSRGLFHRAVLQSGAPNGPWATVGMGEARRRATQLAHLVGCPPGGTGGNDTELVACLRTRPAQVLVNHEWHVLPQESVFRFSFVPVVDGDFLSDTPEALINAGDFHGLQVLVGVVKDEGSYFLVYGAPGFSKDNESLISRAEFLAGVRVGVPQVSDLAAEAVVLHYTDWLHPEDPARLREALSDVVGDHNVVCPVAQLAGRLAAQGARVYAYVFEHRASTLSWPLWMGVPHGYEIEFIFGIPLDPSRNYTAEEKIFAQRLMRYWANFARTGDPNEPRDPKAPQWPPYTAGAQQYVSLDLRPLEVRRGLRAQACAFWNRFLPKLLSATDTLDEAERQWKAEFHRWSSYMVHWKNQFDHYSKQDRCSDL

Which IC50 does the source give for C/C=C1\[C@H]2C=C(C)C[C@]1(N[C@H]1OC(=O)C3=C4CC(C)(C)C[C@H]4[C@@H](C)[C@@H](O)C[C@]31OC)c1ccc(=O)[nH]c1C2 here?
The IC50 was 0.99 µM.

How did the IC50 turn out when C/C=C1\[C@H]2C=C(C)C[C@]1(NC1OCC3=C4CC(C)(C)C[C@H]4[C@@H](C)[C@H](O)CC31O)c1ccc(=O)[nH]c1C2 (stereo not given in full) was run?
The IC50 was 0.11 µM.

How did the IC50 turn out when C/C=C1\[C@H]2C=C(C)C[C@]1(N[C@H]1OC(=O)C3=C4CC(C)(C)C[C@H]4[C@@H](C)[C@@H](O)C[C@]31O)c1ccc(=O)[nH]c1C2 was run?
The IC50 was 2.17 µM.

Which IC50 does the source give for C/C=C1/[C@@H]2Cc3[nH]c(=O)ccc3[C@@]1(N)C[C@]1(C)O[C@H]21 here?
Its IC50 is 12.1 µM.

With C/C=C1\[C@H]2C=C(C)C[C@]1(NC1OCC3=C4CC(C)(C)[C@H](O)[C@H]4[C@@H](C)CCC31O)c1ccc(=O)[nH]c1C2 (stereo not given in full) as the molecule, how does the IC50 read?
Its IC50 is 0.06 µM.
